Source: patent US20070248619A1, “New pharmaceutical composition from natural materials for regulating immunity, its preparation method and use” (priority 2006, published 2007)
Values joined by “and” are separate entries in the source; they are usually repeats but may differ in a detail not shown here. Equal entries are not always repeated.

Legend:
C8166 cells [1] = type: cell-based; settings: C8166, three days, MTT; one value per date of experiment
C8166 cells [2] = type: cell-based
Method: 50□1 medium was added into half of the holes on the culture plate and 50□1 diluted supernatant fluid of HIV-1, in which the value of M.O.I was 0.0089, was added into the other half of the holes on the culture plate. At the same time, the blank control holes without the drug (the negative control) were set and the control culture holes with positive drug AZT (the positive control) were set too. They were put into 5%CO2 incubator under 37 °C for three days. The survival rate of cells was determined by MTT method. OD values (595 nm/630 nm) were determined by ELx800ELISA Reader. The following formulae were used to calculate the survival rate of normal cells caused by the drug and the protective rate of the drug for HIV-1-infected cells. Survival rate of normal cells (%) =OD value of the experimental hole/OD value of negative control hole □ 100%

HIV-1 [3] = settings: C8166 + HIV-1, M.O.I 0.0089, three days; one value per date of experiment
Method: 50□1 diluted supernatant fluid of HIV-1 was added to the mixture and the value of M.O.I was 0.0089. At the same time, the control hole without the drug and the control hole with positive drug AZT were set. They were put into 5%CO2 incubator under 37? for three days. The amount of syncytium was counted under an inverted microscope (100×□) (in five visual fields). IC50, that is, the concentration of the drugs inhibiting 50% syncytium formation, was determined.

HIV-1 [4] = settings: HIV-1-infected C8166, three days, MTT
Method: 50□1 medium was added into half of the holes on the culture plate and 50□1 diluted supernatant fluid of HIV-1, in which the value of M.O.I was 0.0089, was added into the other half of the holes on the culture plate. At the same time, the blank control holes without the drug (the negative control) were set and the control culture holes with positive drug AZT (the positive control) were set too. They were put into 5%CO2 incubator under 37 °C for three days. The survival rate of cells was determined by MTT method. OD values (595 nm/630 nm) were determined by ELx800ELISA Reader. […] Survival rate of normal cells (%) =OD value of the experimental hole/OD value of negative control hole □ 100%
Protective rate of infected cells (%)=(OD value of the experimental hole—OD value of positive control hole)/(OD value of negative control hole—OD value of positive control hole) □ 100%

[5] = Clinical trial in type 2 diabetes patients; type: in vivo, human; settings: 52 cases per group
From the text: According to diagnostic criteria of diabetes by WHO(1985), 104 diabetes patients were diagnosed to have type 2 diabetes. Wherein, 56 patients were male and 48 patients were female at average age of […]. All of them had diabetes for […] years. They were divided into two groups at random:
Group A: treatment group administrated the granules of example 1
Group B: control group administrated Micronase (produced by Shandong Boshan Pharmaceutical Factory, Batch: 990917)
Control group: Micronase was orally taken at 30 minutes before meal in three times per day and 2.5 mg(tablet) each time.

Cc1cn([C@H]2C[C@H](N=[N+]=[N-])[C@@H](CO)O2)c(=O)[nH]c1=O [AZT]
TC50 (concentration causing the death of 50% the cells) (C8166 cells [1]): >50 µg/mL | TC50 obtained by protective experiment (toxic effects on normal cells) (C8166 cells [2]): >50 µg/mL | IC50 inhibiting syncytium formation (head prints TC50) (HIV-1 [3]): 0.23 µg/mL and 0.18 µg/mL | IC50 (EC50 of protective effects on infected cells) (HIV-1 [4]): 0.15 µg/mL

COc1ccc(Cl)cc1C(=O)NCCc1ccc(S(=O)(=O)NC(=O)NC2CCCCC2)cc1 [Micronase]
blood sugar at 2 hours after meal, mean before therapy ([5]; baseline): 14.67 ± 1.49 | fasting blood sugar, mean before therapy ([5]; baseline): 9.53 ± 1.46 | blood sugar at 2 hours after meal, mean after therapy ([5]; therapy for 3 months): 12.14 ± 2.53 | fasting blood sugar, mean after therapy ([5]; therapy for 3 months): 6.53 ± 1.53
